# Measurements: PMC11784839, “Monoaminergic neurotransmitters are bimodal effectors of tau aggregation” (Science Advances, 2025)
# Biological target: tau (Homo sapiens, UniProt P10636)
# Assay: MCE Phenols Library screening, tau biosensor cell seeding assay (AvZ)
# Format: cell-based
# Settings: for Z repl 1 / Z Repl 2: Z score; for Z repl 1 / raw data 1: replicate 1; for Z Repl 2 / raw data 2: replicate 2
# [1] = average Z score of the two replicates, MCE Phenols Library screen
# [2] = average puncta of the two replicates
# [3] = average Z score of the two replicates, tau seeding
# [4] = average Z score of two replicates, Phenols Library screen
# Sequence of tau (P10636 623-695 limits assumed): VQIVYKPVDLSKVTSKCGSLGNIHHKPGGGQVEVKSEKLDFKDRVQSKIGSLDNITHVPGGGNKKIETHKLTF
SMILES,Z repl 1,Z Repl 2,av Z [1],av puncta [2],raw data 1 (raw puncta),raw data 2 (raw puncta),"AvZ (average z score of seeding, SDs from the mean level of seeding) (10 μM phenol in cell cultures, AD brain homogenate preincubated 16 hours, two biological replicates, positive = catalyzes seeding, negative = inhibits)",av puncta (average of raw data 1 and 2),raw data 1 (puncta),raw data 2 (puncta),av Z [3],av Z [4],"av Z (average Z score of the two replicates, tau biosensor seeding, MCE Phenols Library screen)"
COc1c(O)cc2oc(-c3ccccc3)cc(=O)c2c1O [Oroxylin A],-0.11,-0.323,-0.217,17171.6,25029.5,9313.67,–,–,–,–,–,–,–
OC[C@H]1O[C@@H](Oc2cc(O)ccc2/C=C/c2cc(O)cc(O)c2)[C@H](O)[C@@H](O)[C@@H]1O [Oxyresveratrol 2-O-?-D-glucopyranoside],-0.859,0.047,-0.406,14655.6,16039.6,13271.6,–,–,–,–,–,–,–
Oc1cc(O)cc(/C=C/c2ccc(O)cc2O)c1 [Oxyresveratrol],0.048,-0.792,-0.372,15614.1,26923.9,4304.18,–,–,–,–,–,–,–
COc1ccc(C(C)=O)c(O)c1 [Paeonol],0.101,0.444,–,–,–,–,0.272,22534.1,27565,17503.1,–,–,–
O=C(O)CC(O)(CC(=O)OCc1ccc(O[C@@H]2O[C@H](CO)[C@@H](O)[C@H](O)[C@H]2O)cc1)C(=O)OCc1ccc(O[C@@H]2O[C@H](CO)[C@@H](O)[C@H](O)[C@H]2O)cc1 (some centres unmarked) [Parishin B],0.462,0.318,–,–,–,–,–,24029.7,31895.3,16164,0.39,–,–
O=C(O)CC(O)(CC(=O)OCc1ccc(O[C@@H]2O[C@H](CO)[C@@H](O)[C@H](O)[C@H]2O)cc1)C(=O)O (some centres unmarked) [Parishin E],-1.04,-0.216,-0.628,12158.4,–,–,–,–,13862,10454.8,–,–,–
COc1ccc(-c2cc(=O)c3c(O)c(OC)c(O)cc3o2)cc1 [Pectolinarigenin],-0.106,0.876,–,–,–,–,–,23601.4,25077.3,22125.4,0.385,–,–
COc1ccc(-c2cc(=O)c3c(O)c(OC)c(O[C@@H]4O[C@H](CO[C@@H]5O[C@@H](C)[C@H](O)[C@@H](O)[C@H]5O)[C@@H](O)[C@H](O)[C@H]4O)cc3o2)cc1 [Pectolinarin],0.677,-0.144,–,–,–,–,–,22850.6,34472.8,11228.4,0.266,–,–
O=C(O)Cc1cc(O)ccc1O[C@@H]1O[C@H](CO)[C@@H](O)[C@H](O)[C@H]1O [Phaseoloidin],-0.056,-0.658,-0.357,15704.2,25674.3,5734.06,–,–,–,–,–,–,–
COc1cc2c(cc1O)C[C@H]1c3cc(O)c(OC)cc3CC[N@@+]1(C)C2.[Cl-] [Phellodendrine (chloride)],0.263,-0.68,-0.208,17505.3,29504.3,5506.25,–,–,–,–,–,–,–
O=C(CCc1ccc(O)cc1)c1c(O)cc(O)cc1O [Phloretin],-0.858,-0.477,-0.667,11860.9,–,–,–,–,16053.8,7668.02,–,–,–
O=C(CCc1ccc(O)cc1)c1c(O)cc(O)cc1O[C@@H]1O[C@H](CO)[C@@H](O)[C@H](O)[C@H]1O [Phlorizin],-0.297,-0.278,-0.288,16285.7,22779.3,9792.07,–,–,–,–,–,–,–
OC[C@H]1O[C@@H](Oc2cc(/C=C/c3cc(O)cc(O)c3)ccc2O)[C@H](O)[C@@H](O)[C@@H]1O [Piceatannol 3'-O-glucoside],0.407,0.408,–,–,–,–,–,24178.5,31229.6,17127.3,0.407,–,–
Oc1cc(O)cc(/C=C/c2ccc(O)c(O)c2)c1 [Piceatannol],-1.302,–,-1.235,–,–,–,–,5506.01,10717.8,294.245,–,–,–
COc1cc(C(=O)O[C@H]2[C@@H]3C=CO[C@@H](O[C@@H]4O[C@H](CO)[C@@H](O)[C@H](O)[C@H]4O)[C@@H]3[C@@]3(CO)O[C@@H]23)ccc1O [Picroside II],-0.222,-0.853,-0.537,13671.5,–,–,–,–,23683.5,3659.57,–,–,–
CC(=O)O[C@H]1C(=O)c2c(O)cc(O)cc2O[C@@H]1c1ccccc1 [Pinobanksin 3-acetate],0.2,-0.125,–,–,–,–,–,20089.3,28746.2,11432.4,–,0.037,–
COc1cc(O)cc(/C=C/c2ccc(O)cc2)c1 [Pinostilbene],0.091,-0.704,-0.306,16345.6,27446.2,5245.02,–,–,–,–,–,–,–
COc1cc(O)c2c(c1)O[C@H](c1ccccc1)CC2=O [Pinostrobin],-0.797,-0.047,-0.422,14520.5,16779.4,12261.6,–,–,–,–,–,–,–
O=C1C[C@@H](c2cc(O)c(O)c(O[C@@H]3O[C@H](CO)[C@@H](O)[C@H](O)[C@H]3O)c2)Oc2cc(O)cc(O)c21 [Plantagoside],0.333,-0.026,–,–,–,–,–,21412.5,30340.8,12484.2,0.153,–,–
CC1=CC(=O)c2c(O)cccc2C1=O [Plumbagin],-2.104,-0.904,-1.504,–,–,–,–,2099.32,1092.19,3106.45,–,–,–
COc1cc2c(=O)c3c(O)c([C@@H]4O[C@H](CO[C@@H]5OC[C@](O)(CO)[C@H]5O)[C@@H](O)[C@H](O)[C@H]4O)c(O)cc3oc2cc1O [Polygalaxanthone III],-0.439,0.604,–,–,–,–,–,20150.3,21083.3,19217.2,–,0.083,–
Oc1cc(O)c2c(c1)O[C@@]1(c3ccc(O)c(O)c3)Oc3cc(O)c4c(c3[C@@H]2[C@H]1O)O[C@H](c1ccc(O)c(O)c1)[C@@H](O)C4 [Procyanidin A1],0.114,0.572,–,–,–,–,–,23298.5,27718.4,18878.6,0.343,–,–
Oc1cc(O)c2c(c1)O[C@@]1(c3ccc(O)c(O)c3)Oc3cc(O)c4c(c3[C@@H]2[C@H]1O)O[C@H](c1ccc(O)c(O)c1)[C@H](O)C4 [Procyanidin A2],-0.531,-0.919,-0.725,11465,–,–,–,–,19975.5,2954.48,–,–,–
Oc1cc(O)c2c(c1)O[C@H](c1ccc(O)c(O)c1)[C@H](O)[C@H]2c1c(O)cc(O)c2c1O[C@H](c1ccc(O)c(O)c1)[C@H](O)C2 [Procyanidin B2],-0.678,-0.711,-0.695,11690.3,–,–,–,–,18204.5,5175.99,–,–,–
Oc1cc(O)c2c(c1)O[C@H](c1ccc(O)c(O)c1)[C@H](O)[C@H]2c1c(O)cc(O)c2c1O[C@H](c1ccc(O)c(O)c1)[C@H](O)[C@H]2c1c(O)cc(O)c2c1O[C@H](c1ccc(O)c(O)c1)[C@H](O)C2 [Procyanidin C1],0.76,1.6,–,–,–,–,–,32664.3,35473.6,29854.9,–,–,1.18
